system: human C-Myc transcription in MV-4-11 cells; assay: Transcription of human C-Myc in human leukemic MV-4-11 cells (QuantiGene 2.0); assay type: cell-based; details: Homo sapiens, MV4-11, 4 h, inhibition of C-Myc mRNA, 4 hours treatment
Method: b) Transcription of Human C-Myc in Human Leukemic MV-4-11 Cells:
The effect of compounds on transcription of human C-Myc gene is monitored in human B-myelomonocytic leukemia cell line MV-4-11 (from American Type Culture Collection (ATCC), Manassas, Va., USA) using QuantiGene 2.0 assay kit (Affymetrix, Santa Clara, Calif., USA).
Typically, 8,000 MV-4-11 cells are plated in sterile 96-well plates (Costar #3598 from Fisher Scientific Canada, Ottawa, Ontario, Canada) in Iscove's medium supplemented with 10% fetal bovine serum, glutamine (2 mM), and penicillin (100 I.U.) and streptomycin (100 μg/mL) (all from Wisent Inc., St. Bruno, Quebec, Canada). Compounds are dissolved in DMSO at 30 mM. A series of 1:3 dilutions are first made in DMSO, and further 1:100 dilutions are made in serum-containing cell culture media. The final concentration of DMSO is 0.1% in cell culture media. After cells are treated with various concentrations of test compound for 4 hours, cells are lysed using Quantigene 2.0 sample processing kit (#QS0100). C-Myc mRNA is detected using a QuantiGene 2.0 assay kit (#QS0009) with gene-specific probe to human C-Myc (#SA-50182) following the manufacturer's recommendations. Luminescene signals are read on Flexstation II microplate reader (Molecular Devices, Sunnyvale, Calif., USA).

Row | Structure (SMILES) | IC50 [nM]
1 | Cc1cc(-c2cc3c(cc2COC2CCCC2)CCC(=O)N3)cn(C)c1=O [Compound 34, 6-((cyclopentyloxy)methyl)-7-(1,5-dimethyl-6-oxo-1,6-dihydropyridin-3-yl)-3,4-dihydroquinolin-2(1H)-one] | 2820
2 | Cc1cc(-c2cc3c(c(OCC4CCC4)c2)NC(=O)CC3)cn(C)c1=O [Compound 20, 8-(cyclobutylmethoxy)-6-(1,5-dimethyl-6-oxo-1,6-dihydropyridin-3-yl)-3,4-dihydroquinolin-2(1H)-one] | 790
3 | Cc1cc(-c2cc3c(c(OCC4CCCCC4)c2)NC(=O)CC3)cn(C)c1=O [Compound 71] | 540
4 | Cc1cccnc1COc1cc(-c2cc(C)c(=O)n(C)c2)cc2c1NC(=O)CC2 [Compound 76, 6-(1,5-dimethyl-6-oxo-1,6-dihydropyridin-3-yl)-8-((3-methylpyridin-2-yl)methoxy)-3,4-dihydroquinolin-2(1H)-one] | 560
5 | Cc1cc(-c2cc3c(c(OCc4ccc(F)cn4)c2)NC(=O)CC3)cn(C)c1=O [Compound 77, 6-(1,5-dimethyl-6-oxo-1,6-dihydropyridin-3-yl)-8-((5-fluoropyridin-2-yl)methoxy)-3,4-dihydroquinolin-2(1H)-one] | 2280
6 | Cc1cc(-c2cc3c(c(COC4CCCOC4)c2)NC(=O)CC3)cn(C)c1=O (stereo not shown) [Compound 48a, 6-(1,5-dimethyl-6-oxo-1,6-dihydropyridin-3-yl)-8-(((tetrahydro-2H-pyran-3-yl)oxy)methyl)-3,4-dihydroquinolin-2(1H)-one] | 2120
7 | Cc1cc(-c2ccc3c(c2Cc2ccccc2)NC(=O)CC3)cn(C)c1=O [Compound 30, 8-benzyl-7-(1,5-dimethyl-6-oxo-1,6-dihydropyridin-3-yl)-3,4-dihydroquinolin-2(1H)-one] | 250
8 | Cc1cc(-c2ccc3c(c2Cc2cccc(F)c2)CCC(=O)N3)cn(C)c1=O [Compound 86, 6-(1,5-dimethyl-6-oxo-1,6-dihydropyridin-3-yl)-5-(3-fluorobenzyl)-3,4-dihydroquinolin-2(1H)-one] | 370
9 | Cc1cc(-c2cc3c(cc2Cc2ccccn2)CCC(=O)N3)cn(C)c1=O [Compound 32, 7-(1,5-dimethyl-6-oxo-1,6-dihydropyridin-3-yl)-6-(pyridin-2-ylmethyl)-3,4-dihydroquinolin-2(1H)-one] | 2230
10 | Cc1cc(-c2cc3c(cc2Cc2ccc(F)cc2)NC(=O)CC3)cn(C)c1=O [Compound 90, 6-(1,5-dimethyl-6-oxo-1,6-dihydropyridin-3-yl)-7-(4-fluorobenzyl)-3,4-dihydroquinolin-2(1H)-one] | 240
11 | Cc1cc(-c2cc3c(c(NCc4ccncc4)c2)NC(=O)CC3)cn(C)c1=O [Compound 28, 6-(1,5-dimethyl-6-oxo-3-pyridyl)-8-(4-pyridylmethylamino)-3,4-dihydro-1H-quinolin-2-one] | 420
12 | Cc1cc(-c2cc3c(c(COC4CCCCC4)c2)NC(=O)CC3)cn(C)c1=O [Compound 27, 8-(cyclohexoxymethyl)-6-(1,5-dimethyl-6-oxo-3-pyridyl)-3,4-dihydro-1H-quinolin-2-one] | 150
13 | Cc1cc(-c2cc3c(c(COC4CCCC4)c2)NC(=O)CC3)cn(C)c1=O [Compound 21, 8-(cyclopentoxymethyl)-6-(1,5-dimethyl-6-oxo-3-pyridyl)-3,4-dihydro-1H-quinolin-2-one] | 280
14 | Cc1cc(-c2cc3c(c(OCC4CCCCO4)c2)NC(=O)CC3)cn(C)c1=O (stereo not shown) [Compound 55a, 6-(1,5-dimethyl-6-oxo-1,6-dihydropyridin-3-yl)-8-((tetrahydro-2H-pyran-2-yl)methoxy)-3,4-dihydroquinolin-2(1H)-one] | 580
15 | Cc1cc(-c2cc3c(c(OCc4cscn4)c2)NC(=O)CC3)cn(C)c1=O [Compound 82, 6-(1,5-dimethyl-6-oxo-1,6-dihydropyridin-3-yl)-8-(thiazol-4-ylmethoxy)-3,4-dihydroquinolin-2(1H)-one] | 250
16 | Cc1cc(-c2cc3c(c(OCc4cnccn4)c2)NC(=O)CC3)cn(C)c1=O [Compound 52, 6-(1,5-dimethyl-6-oxo-1,6-dihydropyridin-3-yl)-8-(pyrazin-2-ylmethoxy)-3,4-dihydroquinolin-2(1H)-one] | 550

Row | Structure (SMILES) | IC50 [nM]
17 | Cc1cc(-c2cc3c(cc2Cc2cccnc2)NC(=O)CC3)cn(C)c1=O [Compound 62, 6-(1,5-dimethyl-6-oxo-1,6-dihydropyridin-3-yl)-7-(pyridin-3-ylmethyl)-3,4-dihydroquinolin-2(1H)-one] | 860
18 | Cn1cc(-c2cc3c(c(OCc4cccnc4)c2)NC(=O)CC3)cc(Cl)c1=O [Compound 80, 6-(5-chloro-1-methyl-6-oxo-1,6-dihydropyridin-3-yl)-8-(pyridin-3-yl-methoxy)-3,4-dihydroquinolin-2(1H)-one] | 520
19 | Cc1cc(-c2cc3c(c(COc4ccccc4)c2)NC(=O)CC3)cn(C)c1=O [Compound 44, 6-(1,5-dimethyl-6-oxo-1,6-dihydropyridin-3-yl)-8-(phenoxymethyl)-3,4-dihydroquinolin-2(1H)-one] | 270
20 | Cc1cc(-c2cc3c(c(COC4CCOCC4)c2)NC(=O)CC3)cn(C)c1=O [Compound 47, 6-(1,5-dimethyl-6-oxo-1,6-dihydropyridin-3-yl)-8-(((tetrahydro-2H-pyran-4-yl)oxy)methyl)-3,4-dihydroquinolin-2(1H)-one] | 940
21 | Cc1cc(-c2ccc3c(c2COC2CCCC2)NC(=O)CC3)cn(C)c1=O [Compound 38, 8-((cyclopentyloxy)methyl)-7-(1,5-dimethyl-6-oxo-1,6-dihydropyridin-3-yl)-3,4-dihydroquinolin-2(1H)-one] | 540
22 | Cc1cc(-c2cc3c(cc2Cc2cccnc2)CCC(=O)N3)cn(C)c1=O [Compound 101, 7-(1,5-dimethyl-6-oxo-1,6-dihydropyridin-3-yl)-6-(pyridin-3-ylmethyl)-3,4-dihydroquinolin-2(1H)-one] | 2680
23 | Cc1cc(-c2ccc3c(c2Cc2ccccc2C#N)CCC(=O)N3)cn(C)c1=O [Compound 89, 2-((6-(1,5-dimethyl-6-oxo-1,6-dihydropyridin-3-yl)-2-oxo-1,2,3,4-tetrahydroquinolin-5-yl)methyl)benzonitrile] | 560
24 | Cc1cc(-c2cc3c(cc2COC2CCC2)NC(=O)CC3)cn(C)c1=O [Compound 69, 7-(cyclobutoxymethyl)-6-(1,5-dimethyl-6-oxo-1,6-dihydropyridin-3-yl)-3,4-dihydroquinolin-2(1H)-one] | 1250
25 | Cc1cc(-c2cc3c(c(NC(C)c4ccccn4)c2)NC(=O)CC3)cn(C)c1=O (stereo not shown) [Compound 22, 6-(1,5-dimethyl-6-oxo-3-pyridyl)-8-[1-(2-pyridyl)ethylamino]-3,4-dihydro-1H-quinolin-2-one] | 240
26 | Cc1cc(-c2ccc3c(c2Cc2cccnc2)CCC(=O)N3)cn(C)c1=O [Compound 58, 6-(1,5-dimethyl-6-oxo-1,6-dihydropyridin-3-yl)-5-(pyridin-3-ylmethyl)-3,4-dihydroquinolin-2(1H)-one] | 250
27 | Cc1cc(-c2ccc3c(c2Cc2ccc(F)cc2)CCC(=O)N3)cn(C)c1=O [Compound 91, 6-(1,5-dimethyl-6-oxo-1,6-dihydropyridin-3-yl)-5-(4-fluorobenzyl)-3,4-dihydroquinolin-2(1H)-one] | 100
28 | Cc1cc(-c2cc3c(cc2/C=C/c2ccccc2)NC(=O)CC3)cn(C)c1=O [Compound 93, (E)-6-(1,5-dimethyl-6-oxo-1,6-dihydropyridin-3-yl)-7-styryl-3,4-dihydroquinolin-2(1H)-one] | 760
29 | Cc1cc(-c2ccc3c(c2/C=C/c2ccccc2)CCC(=O)N3)cn(C)c1=O [Compound 94, (E)-6-(1,5-dimethyl-6-oxo-1,6-dihydropyridin-3-yl)-5-styryl-3,4-dihydroquinolin-2(1H)-one] | 730
30 | Cc1cc(-c2ccc3c(c2Cc2cccc(C#N)c2)CCC(=O)N3)cn(C)c1=O [Compound 88, 3-((6-(1,5-dimethyl-6-oxo-1,6-dihydropyridin-3-yl)-2-oxo-1,2,3,4-tetrahydroquinolin-5-yl)methyl)benzonitrile] | 260
31 | Cc1cc(-c2cc3c(c(OCc4cncnc4)c2)NC(=O)CC3)cn(C)c1=O [Compound 53, 6-(1,5-dimethyl-6-oxo-1,6-dihydropyridin-3-yl)-8-(pyrimidin-5-ylmethoxy)-3,4-dihydroquinolin-2(1H)-one] | 2080
32 | CC(=O)N(Cc1cc(-c2cc(C)c(=O)n(C)c2)cc2c1NC(=O)CC2)C1CCCC1 [Compound 98, N-cyclopentyl-N-((6-(1,5-dimethyl-6-oxo-1,6-dihydropyridin-3-yl)-2-oxo-1,2,3,4-tetrahydroquinolin-8-yl)methyl)acetamide] | 90

same assay, conditions: inhibition of C-Myc mRNA, 4 hours treatment

Row | Structure (SMILES) | IC50 [nM]
33 | Cc1cc(-c2cc3c(c(OCC4CCCCO4)c2)NC(=O)CC3)cn(C)c1=O (stereo not shown) [Compound 55b, 6-(1,5-dimethyl-6-oxo-1,6-dihydropyridin-3-yl)-8-((tetrahydro-2H-pyran-2-yl)methoxy)-3,4-dihydroquinolin-2(1H)-one] | 800
34 | Cc1cc(-c2cc3c(c(NC(C)c4ccccn4)c2)NC(=O)CC3)cn(C)c1=O (stereo not shown) [Compound 23, 6-(1,5-dimethyl-6-oxo-3-pyridyl)-8-[1-(2-pyridyl)ethylamino]-3,4-dihydro-1H-quinolin-2-one] | 240
